Data as given in US20240237641A1, “COMPOSITION COMPRISING GRAPHENE FOR THE TREATMENT OF TEXTILE ARTICLES AND TEXTILE ARTICLES TREATED” (DIRECTA PLUS S.P.A., priority 2021, published 2024).

What was measured:
Sars-CoV-2 = assay: Test of inhibition of Sars-CoV-2 viral infection of Vero E6 cells; type: cell-based; conditions: Severe acute respiratory syndrome coronavirus 2, Vero C1008, read-out: viable cells
Procedure: The substances were evaluated in the concentration ranges from […]. With the same concentration (0.015 mg/mL) maximum efficacy was obtained with Curcumin (94% viable cells), followed by Emodin (89% viable cells), α-Hederine (71% viable cells) and Thymoquinone (73% viable cells).

Vero E6 cells = conditions: substances solubilized in DMSO, luminescence kit for quantification of viable cells
Source text: The substances were solubilized in dimethyl sulfoxide (DMSO) and renal epithelial cells (Vero E6 ATCC® CRL-1586™) were used for the test. The experimental procedure used was divided into 3 steps: • 1) Evaluation of cytotoxicity (amount of dead cells) of DMSO on Vero E6 cells compared to the negative control, i.e., compared to Vero E6 cells not treated with DMSO; • 2) Evaluation of cytotoxicity of the single substances dissolved in DMSO on Vero E6 cells compared to the negative control, i.e., compared to Vero E6 cells not treated with DMSO; • 3) Evaluation of inhibition of the infection of Vero E6 cells by Sars-Cov-2 (around 10^5 viral particles/mL) compared to the positive control, i.e., Vero E6 cells infected but not treated with any phytotherapeutic substance.
The substances were administered to Vero E6 cells at different concentrations gradually decreasing towards lower concentrations. Cytotoxicity was evaluated using a luminescence kit for the quantification of viable cells.

| Structure (SMILES) | viability at 15 µg/mL (Sars-CoV-2) | concentrations tolerated by the cells (Vero E6 cells) |
| --- | --- | --- |
| COc1cc(/C=C/C(=O)/C=C(O)/C=C/c2ccc(O)c(OC)c2)ccc1O [curcumin] | 94% | 15000 ng/mL |
| Cc1cc(O)c2c(c1)C(=O)c1cc(O)cc(O)c1C2=O [emodin] | 89% | 60000 ng/mL |
| CC1=CC(=O)C(C(C)C)=CC1=O [thymoquinone] | 73% | 7500 ng/mL |
| C[C@@H]1O[C@@H](O[C@H]2[C@H](O[C@H]3CC[C@@]4(C)[C@@H](CC[C@]5(C)[C@@H]4CC=C4[C@@H]6CC(C)(C)CC[C@]6(C(=O)O)CC[C@]45C)[C@]3(C)CO)OC[C@@H](O)[C@@H]2O)[C@H](O)[C@H](O)[C@H]1O [α-hederine] | 71% | 7500 ng/mL |
